Measured values: patent US9738639B2, “Pyrroloquinoline quinone lithium salt crystal and preparation method and application thereof” (SHANGHAI RI XIN BIOTECHNOLOGY CO., LTD., priority 2013, dated 2017)

Legend:
APP/PS1 transgenic mice = experiment: Morris water maze probe test in APP/PS1 transgenic mice; assay type: in vivo; details: for Adjusted average distance of approaching to platform / Swimming path, I quadrant occupancy of platform / first time of crossing platform / time spent of IV quadrant / time, I quadrant occupancy of platform / times of crossing platform: probe test on 5th day, n = 10
Method: 1. […] 2. APP/PS1 transgenic mice (Model Animal Research Center of Nanjing University, weights of mice are from 30 g to 40 g, male, totally 60 mice). Sixty mice are randomized to six groups (group 2 to group 7) with ten mice for each group. […] group: 0.15 mg/mL […] solution is obtained by grinding one tablet (5 mg) of […] into powder, followed by dissolved in 0.5% CMC (carboxymethylcellulose). Morris water maze (Experimental video analysis system of Morris water maze, JLBehv-MWMG, Shanghai Jiliang Technology Co., Ltd) Group 1 and group 2 are daily administrated by normal saline and group 3 to group 7 are daily administrated by drug solutions prepared above, with the dosage of 1 mL/100 g/day for continuous one month. From the fifth week, mice are training in Morris water maze, 30 minutes after drug administration. The training session lasts for 4 days. The probe test performed on the 5th day. The Morris water maze statistics software is used to automatically record and analyze the swimming trace in the quadrant, time spent and path in target or opposite quadrant occupancy and times of crossing platform. The data is indicated as average±standard deviation (x±SD). The analysis of variance for a single factor is used for data difference statistics. Difference between groups is determined by P<0.05.

[1] = system: glycogen synthase kinase-3 (GSK-3); details: background statement, no data; cited from earlier work
[2] = Hygroscopicity by dynamic vapor sorption (DVS) analysis; assay type: physicochemical; details: for hygroscopicity: DVS
Method: Dynamic Vapor Sorption (DVS) curves of the polymorphs are measured on SMS DVS Intrinsic at 0-95% RH and 25° C.
The compound stably exists as a nonahydrate by dynamic vapor sorption analysis. It forms monohydrate under the scope of relative humidity (RH) from 20% to 50%. It forms dihydrate under the scope of relative humidity (RH) from 70% to 100%. It could forms polyhydrate with further increased relative humidity (RH).
Under the scope of relative humidity (RH) from 5% to 95%, the hygroscopicity of the intermediate A of pyrroloquinoline quinine lithium salt and the crystalline form B of pyrroloquinoline quinine lithium salt from example 1 is measured by dynamic vapor sorption analysis. […] The crystalline solid is not good. The hygroscopicity of the crystalline form B of pyrroloquinoline quinine lithium salt is 8.4% and 13.9% under the relative humidity (RH) of 65% and 80%, respectively. […] The crystalline solid is not good.

[3] = 0.375 mg/kg daily for one month

Compound: COc1cc2c(cc1OC)C(=O)C(CC1CCN(Cc3ccccc3)CC1)C2 (stereo not shown) [Aricept, reference compound]
- Adjusted average distance of approaching to platform (APP/PS1 transgenic mice; 1.5 mg/kg daily for one month): 582.7 mm
- Swimming path, I quadrant occupancy of platform (APP/PS1 transgenic mice; 1.5 mg/kg daily for one month): 2730.8 mm
- first time of crossing platform (APP/PS1 transgenic mice; 1.5 mg/kg daily for one month): 30.7 s
- time spent of IV quadrant (APP/PS1 transgenic mice; 1.5 mg/kg daily for one month): 21.7 s
- time, I quadrant occupancy of platform (APP/PS1 transgenic mice; 1.5 mg/kg daily for one month): 9.3 s
- times of crossing platform (APP/PS1 transgenic mice; 1.5 mg/kg daily for one month): 1.6

Compound: O=C([O-])c1cc(C(=O)[O-])c2c(n1)C(=O)C(=O)c1cc(C(=O)[O-])[nH]c1-2.[Li+].[Li+].[Li+] [Pyrroloquinoline quinine lithium salt, trilithium derivative of pyrroloquinoline quinine]
- effect on glycogen synthase kinase-3 activities (GSK-3) [1]: suppress the glycogen synthase kinase-3 activities

Compound: O=C([O-])c1cc(C(=O)[O-])c2c(n1)C(=O)C(=O)c1cc(C(=O)[O-])[nH]c1-2.[Li+].[Li+].[Li+] [trilithium derivative of pyrroloquinoline quinine, reference compound]
- crystalline solid (assessment in words) ([2]; after the hygroscopicity comparison): not good
- hygroscopicity variety under the normal moist environment for storage [2]: 5-25%
- hygroscopicity ([2]; relative humidity (RH) of 65%): 25.3%
- hygroscopicity ([2]; relative humidity (RH) of 80%): 32.6%

Compound: O=C([O-])c1cc(C(=O)[O-])c2c(n1)C(=O)C(=O)c1cc(C(=O)[O-])[nH]c1-2.[Li+].[Li+].[Li+] [PQQ-Li, trilithium derivative of pyrroloquinoline quinine]
- Adjusted average distance of approaching to platform (APP/PS1 transgenic mice; [3]): 762.6 mm
- Swimming path, I quadrant occupancy of platform (APP/PS1 transgenic mice; [3]): 961.6 mm
- first time of crossing platform (APP/PS1 transgenic mice; [3]): 44.9 s
- time spent of IV quadrant (APP/PS1 transgenic mice; [3]): 12.4 s
- time, I quadrant occupancy of platform (APP/PS1 transgenic mice; [3]): 2.8 s
- times of crossing platform (APP/PS1 transgenic mice; [3]): 0.8
- Adjusted average distance of approaching to platform (APP/PS1 transgenic mice; 0.75 mg/kg daily for one month): 674.9 mm
- Swimming path, I quadrant occupancy of platform (APP/PS1 transgenic mice; 0.75 mg/kg daily for one month): 2029.9 mm
- first time of crossing platform (APP/PS1 transgenic mice; 0.75 mg/kg daily for one month): 31.3 s
- time spent of IV quadrant (APP/PS1 transgenic mice; 0.75 mg/kg daily for one month): 15.8 s
- time, I quadrant occupancy of platform (APP/PS1 transgenic mice; 0.75 mg/kg daily for one month): 6.4 s
- times of crossing platform (APP/PS1 transgenic mice; 0.75 mg/kg daily for one month): 1.6
- Adjusted average distance of approaching to platform (APP/PS1 transgenic mice; 1.5 mg/kg daily for one month): 605.6 mm
- Swimming path, I quadrant occupancy of platform (APP/PS1 transgenic mice; 1.5 mg/kg daily for one month): 2653.3 mm
- first time of crossing platform (APP/PS1 transgenic mice; 1.5 mg/kg daily for one month): 22.7 s
- time spent of IV quadrant (APP/PS1 transgenic mice; 1.5 mg/kg daily for one month): 17.7 s
- time, I quadrant occupancy of platform (APP/PS1 transgenic mice; 1.5 mg/kg daily for one month): 8.9 s
- times of crossing platform (APP/PS1 transgenic mice; 1.5 mg/kg daily for one month): 2.2
- Adjusted average distance of approaching to platform (APP/PS1 transgenic mice; 3 mg/kg daily for one month): 572.5 mm
- Swimming path, I quadrant occupancy of platform (APP/PS1 transgenic mice; 3 mg/kg daily for one month): 2636.1 mm
- first time of crossing platform (APP/PS1 transgenic mice; 3 mg/kg daily for one month): 21.8 s
- time spent of IV quadrant (APP/PS1 transgenic mice; 3 mg/kg daily for one month): 19.5 s
- time, I quadrant occupancy of platform (APP/PS1 transgenic mice; 3 mg/kg daily for one month): 9.2 s
- times of crossing platform (APP/PS1 transgenic mice; 3 mg/kg daily for one month): 2.3
- dose dependence of effects in Morris water maze test (APP/PS1 transgenic mice; APP/PS1 transgenic mice, 0.375-3 mg/kg): good dose-dependent effects
- effect on spatial memory and cognitive impairment (APP/PS1 transgenic mice; APP/PS1 transgenic mice, Morris water maze test): significantly improved spatial memory and cognitive impairment
- hydrate form in which the compound stably exists ([2]; dynamic vapor sorption analysis): nonahydrate
- hygroscopicity variety under the normal moist environment for storage ([2]; listed as crystalline form B of pyrroloquinoline quinine lithium salt): 5-10%
- hydrate form ([2]; relative humidity (RH) from 20% to 50%): monohydrate
- hydrate form ([2]; relative humidity (RH) from 70% to 100%): dihydrate
- hygroscopicity ([2]; relative humidity (RH) of 65%, listed as crystalline form B of pyrroloquinoline quinine lithium salt): 8.4%
- hygroscopicity ([2]; relative humidity (RH) of 80%, listed as crystalline form B of pyrroloquinoline quinine lithium salt): 13.9%
